According to patent US20140243302A1, “BRIDGED BICYCLIC COMPOUNDS FOR THE TREATMENT OF BACTERIAL INFECTIONS” (priority 2011, published 2014):
Counter-ions that a name gives are not always drawn.

Test system: Staphylococcus aureus Smith
Experiment: MIC assay, modified agar dilution (CLSI), S. aureus Smith
Format: cell-based
Conditions: agar dilution, 35° C., 16-20 hr, lowest concentration that completely inhibited growth; for MIC: Staphylococcus aureus, read-out: S_aureus_Smith_WT_MIC
Procedure: The potency of antibacterial agents was measured using the Minimal Inhibitory Concentration (MIC) assay. The assay measures the ability of test agents to inhibit the growth of bacteria on agar-containing medium.
The bacterial test strains used were exemplified by Staphylococcus aureus Smith, Enterococcus faecium A2373, Streptococcus pneumoniae IID554, and Escherichia coli ATCC 25922. All strains were maintained as frozen stocks held at −80° C. in skim milk. Other bacterial test strains are well known to those skilled in the art and can be used for testing.
Mueller Hinton Agar (MHA BBL; Becton Dickinson and Company, Sparks, Md.) was used as the medium. MHA was supplemented with 5% defibrinated horse blood (DHB; Nippon Biotest Laboratories inc.) to support the growth of S. pneumoniae and E. faecium.
MIC values were determined using a modified agar dilution procedure described by the Clinical and Laboratory Standards Institute (CLSI; Methods for Dilution Antimicrobial Susceptibility Tests for Bacteria That Grow Aerobically; Approved Standard—Eighth Edition. CLSI document M07-A8 [ISBN 1-56238-689-1]. Clinical and Laboratory Standards Institute, 940 West Valley Road, Suite 1400, Wayne, Pa. 19087-1898 USA, 2009).
Stock solutions (6.4 mgmL) of test compounds were prepared in 100% ultrapure dimethyl sulfoxide (DMSO; source) on the day of the assay. Subsequent serial dilutions were performed to generate solutions with concentrations ranging from 6.4 to 0.0002 mgmL in 100% DMSO.
Agar medium containing test compound was prepared by adding the dilutions of antimicrobial solution to molten MHA at a temperature of 45-50° C. The agar and antimicrobial solution were mixed thoroughly, poured into petri dishes, and allowed to solidify at room temperature. The final concentration of test compounds in the MHA medium ranged from 128 to 0.001 μg/mL with two-fold dilutions. MHA plates lacking antibacterial compound were used for growth controls.
Prior to susceptibility testing, the bacterial isolates were removed from frozen storage, thawed at room temperature, sub-cultured to MHA medium and incubated overnight at 35° C. S. pneumoniae and E. faecium were subcultured on MHA supplemented with 5% DHB at 35° C. with […]. Colonies from each plate were suspended in normal saline. This suspension was adjusted to the turbidity of a 0.5 McFarland standard, 1-2×10^8 colony forming units (CFU) per mL, and diluted 100-fold to 1-2×10^6 CFUmL.
Suspensions of bacterial cultures were applied to the surface of MHA plates containing test compound as well as to a growth control plate lacking test compound using an inoculum-replicating device with 4 mm pins. The replicating device applied 5 uL of the bacterial suspension such that each spot contained approx. 1×10^4 CFU. Plates were dried for about 40 min and incubated at 35° C. for 16-20 hr prior to scoring.

Structure (SMILES)	S_aureus_Smith_WT_MIC	S_aureus_Smith_WT_MIC (Hydrochloride)	also measured
COc1ccc2ncc(Cl)c(C(O)CC34CCC(NCc5ccc6c(n5)NC(=O)CO6)(CC3)CC4)c2n1 (single isomer, unassigned) [Example 13a, 6-((4-(2-(3-Chloro-6-methoxy-1,5-naphthyridin-4-yl)-2-hydroxyethyl)bicyclo[2.2.2]octan-1-ylamino)methyl)-2H-pyrido[3,2-b][1,4]oxazin-3(4H)-one]	0.0310 µg/mL	–	–
COc1ccc2ncc(Cl)c(C(O)CC34CCC(NCc5ccc6c(n5)NC(=O)CO6)(CC3)CC4)c2n1 (single isomer, unassigned) [Example 13b, 6-((4-(2-(3-Chloro-6-methoxy-1,5-naphthyridin-4-yl)-2-hydroxyethyl)bicyclo[2.2.2]octan-1-ylamino)methyl)-2H-pyrido[3,2-b][1,4]oxazin-3(4H)-one]	0.0630 µg/mL	–	–
COc1ccc2ncc(Cl)c(CC(O)C34CCC(NCc5ccc6c(n5)NC(=O)CO6)(CC3)CC4)c2n1.Cl (single isomer, unassigned) [Example 14a, 6-((4-(2-(3-Chloro-6-methoxy-1,5-naphthyridin-4-yl)-1-hydroxyethyl)bicyclo[2.2.2]octan-1-ylamino)methyl)-2H-pyrido[3,2-b][1,4]oxazin-3(4H)-one Hydrochloride]	–	–	MIC: 0.031 µg/mL
COc1ccc2ncc(Cl)c(CC(O)C34CCC(NCc5ccc6c(n5)NC(=O)CO6)(CC3)CC4)c2n1.Cl (single isomer, unassigned) [Example 14b, 6-((4-(2-(3-Chloro-6-methoxy-1,5-naphthyridin-4-yl)-1-hydroxyethyl)bicyclo[2.2.2]octan-1-ylamino)methyl)-2H-pyrido[3,2-b][1,4]oxazin-3(4H)-one Hydrochloride]	0.0310 µg/mL	–	–
COc1ccc2ncc(F)c(CC(O)C34CCC(NCc5ccc6c(n5)NC(=O)CO6)(CC3)CO4)c2n1.Cl (single isomer, unassigned) [Example 20b, 6-((1-(2-(3-Fluoro-6-methoxy-1,5-naphthyridin-4-yl)-1-hydroxyethyl)-2-oxabicyclo[2.2.2]octan-4-ylamino)methyl)-2H-pyrido[3,2-b][1,4]oxazin-3(4H)-one Hydrochloride]	0.0630 µg/mL	–	–
COc1ccc2ncc(F)c(CC(N)C34CCC(NCc5ccc6c(n5)NC(=O)CO6)(CC3)CO4)c2n1 (single isomer, unassigned) [Example 21a, 6-((1-(1-Amino-2-(3-fluoro-6-methoxy-1,5-naphthyridin-4-yl)ethyl)-2-oxabicyclo[2.2.2]octan-4-ylamino)methyl)-2H-pyrido[3,2-b][1,4]oxazin-3(4H)-one Dihydrochloride]	–	–	MIC: 0.25 µg/mL
COc1ccc2ncc(F)c(CC(N)C34CCC(NCc5ccc6c(n5)NC(=O)CO6)(CC3)CO4)c2n1 (single isomer, unassigned) [Example 21b, 6-((1-(1-Amino-2-(3-fluoro-6-methoxy-1,5-naphthyridin-4-yl)ethyl)-2-oxabicyclo[2.2.2]octan-4-ylamino)methyl)-2H-pyrido[3,2-b][1,4]oxazin-3(4H)-one Dihydrochloride]	–	–	S_aureus_Smith_WT_MIC (Dihydrochloride): 0.125 µg/mL
COc1ccc2ncc(F)c(C(O)C(O)C34CCC(NCc5ccc6c(n5)NC(=O)CO6)(CC3)CO4)c2n1.Cl (single isomer, unassigned) [Example 26a, 6-((1-(2-(3-Fluoro-6-methoxy-1,5-naphthyridin-4-yl)-1,2-dihydroxyethyl)-2-oxabicyclo[2.2.2]octan-4-ylamino)methyl)-2H-pyrido[3,2-b][1,4]oxazin-3(4H)-one Hydrochloride]	–	0.250 µg/mL	–
COc1ccc2ncc(F)c(C(O)C(O)C34CCC(NCc5ccc6c(n5)NC(=O)CO6)(CC3)CO4)c2n1.Cl (single isomer, unassigned) [Example 26b, 6-((1-(2-(3-Fluoro-6-methoxy-1,5-naphthyridin-4-yl)-1,2-dihydroxyethyl)-2-oxabicyclo[2.2.2]octan-4-ylamino)methyl)-2H-pyrido[3,2-b][1,4]oxazin-3(4H)-one Hydrochloride]	–	1.00 µg/mL	–
COc1ccc2ncc(F)c(C3OC(=O)OC3C34CCC(NCc5ccc6c(n5)NC(=O)CO6)(CC3)CO4)c2n1.Cl (single isomer, unassigned) [Example 27a, 6-((1-(5-(3-Fluoro-6-methoxy-1,5-naphthyridin-4-yl)-2-oxo-1,3-dioxolan-4-yl)-2-oxabicyclo[2.2.2]octan-4-ylamino)methyl)-2H-pyrido[3,2-b][1,4]oxazin-3(4H)-one Hydrochloride]	–	0.250 µg/mL	–
COc1ccc2ncc(F)c(C3OC(=O)OC3C34CCC(NCc5ccc6c(n5)NC(=O)CO6)(CC3)CO4)c2n1.Cl (single isomer, unassigned) [Example 27b, 6-((1-(5-(3-fluoro-6-methoxy-1,5-naphthyridin-4-yl)-2-oxo-1,3-dioxolan-4-yl)-2-oxabicyclo[2.2.2]octan-4-ylamino)methyl)-2H-pyrido[3,2-b][1,4]oxazin-3(4H)-one hydrochloride]	–	2.00 µg/mL	–
COc1ccc2ncc(=O)n(CC(O)C34CCC(NCc5ccc6c(n5)NC(=O)CO6)(CC3)CO4)c2n1.Cl (single isomer, unassigned) [Example 51a, 6-(((1-(1-Hydroxy-2-(6-methoxy-3-oxopyrido[2,3-b]pyrazin-4(3H)-yl)ethyl)-2-oxabicyclo[2.2.2]octan-4-yl)amino)methyl)-2H-pyrido[3,2-b][1,4]oxazin-3(4H)-one Hydrochloride]	–	0.0310 µg/mL	–
COc1ccc2ncc(=O)n(CC(O)C34CCC(NCc5ccc6c(n5)NC(=O)CO6)(CC3)CO4)c2n1.Cl (single isomer, unassigned) [Example 51b, 6-(((1-(1-hydroxy-2-(6-methoxy-3-oxopyrido[2,3-b]pyrazin-4(3H)-yl)ethyl)-2-oxabicyclo[2.2.2]octan-4-yl)amino)methyl)-2H-pyrido[3,2-b][1,4]oxazin-3(4H)-one hydrochloride]	–	0.0630 µg/mL	–
COc1ccc2ccc(=O)n(CC(O)C34CCC(NCc5ccc6c(n5)NC(=O)CO6)(CC3)CO4)c2n1 (single isomer, unassigned) [Example 52a, 6-(((1-(1-Hydroxy-2-(7-methoxy-2-oxo-1,8-naphthyridin-1(2H)-yl)ethyl)-2-oxabicyclo[2.2.2]octan-4-yl)amino)methyl)-2H-pyrido[3,2-b][1,4]oxazin-3(4H)-one]	0.0310 µg/mL	–	–
COc1ccc2ccc(=O)n(CC(O)C34CCC(NCc5ccc6c(n5)NC(=O)CO6)(CC3)CO4)c2n1 (single isomer, unassigned) [Example 52b, 6-(((1-(1-Hydroxy-2-(7-methoxy-2-oxo-1,8-naphthyridin-1(2H)-yl)ethyl)-2-oxabicyclo[2.2.2]octan-4-yl)amino)methyl)-2H-pyrido[3,2-b][1,4]oxazin-3(4H)-one]	0.0630 µg/mL	–	–
COc1cnc2ccc(=O)n(CC(O)C34CCC(NCc5ccc6c(n5)NC(=O)CO6)(CC3)CO4)c2c1 (single isomer, unassigned) [Example 54a, 6-(((1-(1-Hydroxy-2-(7-methoxy-2-oxo-1,5-naphthyridin-1(2H)-yl)ethyl)-2-oxabicyclo[2.2.2]octan-4-yl)amino)methyl)-2H-pyrido[3,2-b][1,4]oxazin-3(4H)-one]	0.250 µg/mL	–	–
COc1cnc2ccc(=O)n(CC(O)C34CCC(NCc5ccc6c(n5)NC(=O)CO6)(CC3)CO4)c2c1 (single isomer, unassigned) [Example 54b, 6-(((1-(1-hydroxy-2-(7-methoxy-2-oxo-1,5-naphthyridin-1(2H)-yl)ethyl)-2-oxabicyclo[2.2.2]octan-4-yl)amino)methyl)-2H-pyrido[3,2-b][1,4]oxazin-3(4H)-one]	0.0160 µg/mL	–	–
O=C1COc2ccc(CNC34CCC(C(O)Cn5c(=O)ccc6ncc(F)cc65)(CC3)OC4)nc2N1 (single isomer, unassigned) [Example 55a, 6-((1-(2-(7-Fluoro-2-oxo-1,5-naphthyridin-1(2H)-yl)-1-hydroxyethyl)-2-oxabicyclo[2.2.2]octan-4-ylamino)methyl)-2H-pyrido[3,2-b][1,4]oxazin-3(4H)-one]	1.00 µg/mL	–	–
